Values of other authors in patent publication US11197823B2, “Topiramate oral liquid suspension and use thereof” (OWP Pharmaceuticals, Inc., priority 2019, dated 2021).

## CC1(C)O[C@@H]2[C@@H](CO[C@@]3(COS(N)(=O)=O)OC(C)(C)O[C@@H]23)O1 [Topiramate, 2,3:4,5-Di-O-isopropylidene-β-D-fructopyranose sulfamate]
acetone, dimethyl sulfoxide, ethanol, and alkaline solutions containing sodium hydroxide or sodium phosphate
  solubility in organic solvents and alkaline solutions: freely soluble
water, room temperature
  solubility in water: approximately 9.8 mg/mL
